Patent US10695330B2, “Methods of treatment” (Global Blood Therapeutics, Inc., priority 2015, dated 2020)

Legend:
[1] = target: T1, Hb (Mus musculus, UniProt P01942); test: Tolerance to hypoxia mouse model: PK/PD (Hb occupancy, hemoximetry of blood from dosed mice); type: in vivo; conditions: healthy mice
T1 construct: from tissue; host or cells: whole blood (red blood cells) of dosed C57BL / C57BL/6J mice
Method: Male, C57BL mice were fitted with a dorsal skinfold window chamber for direct visualization of an intact microvascular bed (Yalcin & Cabrales 2012). After the window chamber was implanted, the animals were left to recover for at least 2 days, before undergoing surgery a second time for arterial (carotid) catheter implantation (PESO tubing). After two day of recovery, mice were dosed orally with Compound 1 (70 or 140 mg/kg) or vehicle only and Hb O2 affinity was determined by hemoximetry. Two hours post dose, conscious mice were placed in a restraining tube with a longitudinal slit from which the protruding window chamber provided a microscopic stage for observation. In this setup, gas flow rate (0.2 L/min) into the tube is diffused by a cotton filter barrier. Baseline measurements for normoxia (21% O2) were completed within an hour of restraining mice. The animals were then exposed to stepwise hypoxia by decreasing the O2 concentration to 15, 10 and 5%. Animals were kept at each hypoxic level for 30 min. Mice were allowed 15 min of acclimatization at each new hypoxic level before measurements were taken. During hypoxia, changes in systemic and microvascular hemodynamics, blood gases, blood lactate, tissue partial pressure of O2 (PO2), tissue hypoxia and tolerance to hypoxia were evaluated. At each time point, mice with adequate systolic blood pressure (BP) were counted as survived and mice with severe hypotension (BP≤60 mmHg) were counted as non-survived and were euthanized.
Oxygen equilibrium curves for mice blood were obtained by deoxygenation of O2-equilibrated samples in a Hemox buffer at 37° C., using a Hemox Analyzer (TCS Scientific Corporation, New Hope, Pa.). […] The absorbance at wavelengths that correspond to the isosbestic point (570 nm) and deoxy Hb (560 nm) was recorded as a function of the sample O2 tension (pO2). During deoxygenation, the pO2 and percent O2 saturation values were collected to obtain the OECs and the p50 values (partial pressure of O2 at which Hb is 50% saturated with O2). p50 values were calculated using a non-linear regression analysis. […]

[2] = system: mice with bleomycin-induced fibrosis; test: Bleomycin induced mouse model of hypoxemia and pulmonary fibrosis; type: in vivo
Method: Forty-eight C57B/L6 male mice aged 7-8 weeks were obtained from Simonsen Laboratory, Gilroy, Calif. The mice were ear tagged and weighed prior to the start of the study. The animals were distributed into four groups with twelve animals in each group. Body weights of all mice were recorded daily during the study. Animals in groups 2, 3 and 4 were administered 3 U/kg bleomycin sulfate USP (Teva Pharmaceuticals) via oropharyngeal route […] (see Walters, D. M. and S. R. Kleeberger (2008). “Mouse models of bleomycin-induced pulmonary fibrosis.” Curr Protoc Pharmacol Chapter 5: Unit 5 46.) Animals in group 1 were administered normal saline via oropharyngeal route.
Compound 1 (formulated in dimethylacetamide: polyethylene glycol 400 (PEG400): 40% cavitron at a 1:5:4 ratio) was administered at either low dose (first day 50 mg/kg followed by 40 mg/kg daily) or high dose (first day 150 mg/kg followed by 85 mg/kg daily) via oral gavage to bleomycin treated mice once daily from day 8 to day 15. Animals in group 1 were administered vehicle via oral gavage. The dosing volume was 200 μL. The study animals were sacrificed on day 15 at 4 hours post final dose.
Samples for hemoximetry and pharmacokinetics (PK) were taken 4 hours following the last dose of the dosing regimen. BAL fluid was collected from the lungs of the animals by lavaging the lung with 1 ml Hanks balanced salt media (HBSS). Lungs were harvested from each animal and weighed. They were then inflated by ˜0.5 mL of 10% NBF and fixed in a formalin container for subsequent histopathological analysis.
Hypoxia is a feature of IPF, and oxygen saturation measurements are often used clinically to evaluate the presence and severity of hypoxia. Responses to hypoxia in mice treated with Compound 1 were first evaluated by measuring arterial oxygen saturation (SaO2). On day 7 and 14 after bleomycin or saline instillation, 50 μL of arterial blood from the tail artery were used for measurement of arterial oxygen saturation (SaO2) using whole blood GEM OPL co-oximeter (Instrumentation Laboratory, MA). An additional aliquot of 100 μL of blood were collected from tail artery and arterial blood gases using the i-STAT Handheld Blood Analyzer (ABBOTT) were measured using CG4+ cartridges. For each mouse, SaO2 and arterial oxygen tension (pO2) were measured. […] In contrast, arterial oxygenation levels of vehicle treated mice further declined throughout the study (FIG. 4C). The arterial blood gases (ABG) were also analyzed on day 7 and day 14 (FIG. 4C). Data are expressed as means±SEM. […] In vehicle-treated bleomycin mice the pO2 reached a further decline at day 14.
In this bleomycin model, mice develop extensive pulmonary fibrosis as well as pulmonary inflammation; thus, the effect of Compound 1 treatment on the phenotype of pulmonary inflammatory cells was examined. The BAL fluid was centrifuged at 1,000 rpm at 4° C. for 5 minutes. The BAL cell pellets were suspended in 2 mls of 1× Pharmalyse buffer (BD Bioscience) to lyse the RBCs. PBS+2% FBS were added to stop the lysis reaction and cells centrifuged again. Leukocytes in the cell pellet were counted using a hemocytometer and the trypan blue exclusion method.
Pulmonary fibrosis was induced by administering mice a single dose of bleomycin. Collagen content of was determined by quantifying total soluble collagen in the BALF supernatant using the Sircol collagen dye binding assay according to the manufacturer's instructions (Biocolor Ltd, Carrick Fergus, UK).
Lungs were harvested from each animal and weighed at Day 15.
The histopathological analysis was conducted at Seventh Wave Laboratories, Chesterfield, Mo. The lung samples were processed and embedded with all lobes from each mouse in one paraffin block. Coronal sections through the four major lobes were stained with Masson's Trichrome. For each animal, consecutive lung fields were examined in a raster pattern using a 20× objective lens and a 10× or 40× ocular lens (200× or 800×). […]

T1 sequence (P01942 2-142 limits assumed): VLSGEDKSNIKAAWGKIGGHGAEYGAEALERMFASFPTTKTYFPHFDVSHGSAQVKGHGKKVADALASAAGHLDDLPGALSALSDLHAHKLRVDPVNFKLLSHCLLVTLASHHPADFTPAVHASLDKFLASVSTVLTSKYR
T1 sequence (P02088 2-147 partner limits assumed): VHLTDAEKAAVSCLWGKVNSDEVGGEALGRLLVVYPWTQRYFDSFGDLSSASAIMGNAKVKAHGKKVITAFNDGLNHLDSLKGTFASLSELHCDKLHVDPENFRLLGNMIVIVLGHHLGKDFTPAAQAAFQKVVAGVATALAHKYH

In the case of `O=Cc1c(O)cccc1OC[C@@H]1CCCCN1C(=O)c1cccnc1` [Compound 1, (S)-2-hydroxy-6-((1-nicotinoylpiperidin-2-yl)methoxy)benzaldehyde], the “calculated Hb occupancy” value ([1]; 70 mg/kg oral) is reported as ~30%, the “calculated Hb occupancy” value ([1]; 140 mg/kg oral) is reported as ~60% and the “Hb O2 affinity (left-shift in the OEC) in whole blood from dosed mice” value ([1]; 70 or 140 mg/kg oral, vs vehicle) is reported as “dose-dependent increase in Hb O2 affinity relative to control”. For the same molecule, the “arterial oxygen tension (pO2)” value ([2]; day 14) was “tendency for an increase pO2 or prevention of further decline of pO2”, the “arterial oxygen saturation (SaO2)” value ([2]; day 14, after seven consecutive days of treatment, low and high dose) was “return toward control values” and the “improvement of overall Ashcroft scores” value ([2]; day 15, P<0.01) was “approximately 50%”. The “collagen protein (total soluble collagen in BALF supernatant, Sircol)” value ([2]; day 15, P<0.05) was “significant reduction in collagen protein in the lungs”, the “total inflammatory cells recovered in BAL fluid” value ([2]; day 15, P<0.05) was “significant reduction in total inflammatory cells recovered in BAL fluid” and the lung weight ([2]; day 15, vs bleomycin vehicle control, P<0.01) was “significantly heavier than lungs from Compound 1-treated mice”. For the same molecule, the “collagen deposition (Masson's trichrome histology)” value ([2]; day 15 lung sections, low and high dose) was “diminished collagen deposition”.
